Patent publication US20090215710A1, “CARBOHYDRATE BASED TOLL-LIKE RECEPTOR (TLR) ANTAGONISTS” (RELIANCE LIFE SCIENCES PVT. LTD., priority 2007, published 2009)

Tests used:
TNF-α = experiment: TNF response to increasing concentration of LPS in THP-1 cells; type: cell-based, human; settings: LPS 1000 ng/ml
Experimental: The present invention has also conducted experiments to check the ability of RSCL-0409 to inhibit LPS induced TNF-α secretion from THP-1 cells, wherein the studies involved the stimulation of THP-1 cells with increasing concentrations of LPS (62.5 ng/ml to 1000 ng/ml) with and without pre-treatment of cells with different concentrations of RSCL-0409.

TNF-α mRNA = TNF-α mRNA expression in LPS stimulated THP-1 cells (real-time PCR); type: cell-based, human; settings: THP-1, LPS 250 ng/ml 1 hr
Experimental: To determine whether the suppressive effect of RSCL-0409 on the cytokine production occurs at mRNA expression level, quantitative real-time PCR was used to examine TNF-α and IL-6 mRNA expression in THP-1 cells stimulated with LPS. THP-1 cells (3×10^6 cells/well) were stimulated with 250 ng/ml LPS in the presence or absence of RSCL-0409 at indicated concentrations for the 1 hr. Total RNA was isolated from these cells and cDNA was synthesized. LPS treated cells acted as positive control. All quantitative real-time PCR (TaqMan™) primers and probes were obtained from Applied Biosystems (ABI), Weiterstadt, Germany. For detection of TNF-α, pre-developed assay reagents (Universal master mix as obtained from Applied Biosystems included all reagents including Taq-polymerase apart from specific primers and probes) were used. The PCR was performed utilizing 1 μl cDNA per reaction in triplicates of 25 μl volume on an ABI 7500 Realtime PCR machine using a 2-step PCR protocol.
Quantization of mRNA was performed using the comparative threshold cycle method and analysed using standard software and expressed in fold change. The fold change of TNF-α (FIG. 5a) and IL-6 (FIG. 5b) mRNA in treated cells over control was obtained after correction for the amount of β-actin. […] The expression levels of both TNF and IL-6 decreased following 1 hr pretreatment with RSCL-0409 in the presence of LPS. […]

COX-2 pathway = experiment: Arachadonic acid induced PGE2 release in A549 cells (EIA); type: cell-based, human
From the text: COX-2 is the key enzyme regulating the production of prostaglandins, which act as central mediators of inflammation. […] It is well documented COX-2 pathway inhibitors were regarded as promising nonsteroidal anti-inflammatory drugs (NSAIDs). So we decided to test the ability of RSCL-0409 to block the COX-2 pathway to substantiate our earlier mRNA observation. For that purpose, we chose A549 cells, a human lung cancer cell line where COX-2 is activated by AA in serum-free stimulation established by Yao et al for 12 hr. (Yao J C, Duan W G, Yun Y, Liu de Q, Yan M, Jiang Z Z, Zhang L Y. Screening method for nonsteroidal antiinflammatory drugs based on the cyclooxygenase 2 pathway activated by serum-free stimulation in A549 cells. Yakugaku Zasshi. 2007; 127: 527-32.) In order to determine the efficiency of our molecule, we have incorporated two known COX-2 NSAIDs-Piroxicam and Ibuprofen for comparison purposes. A549 cells (50×10^4 cells/well) in serum free medium were pretreated with different concentrations (10 μM, 5 μM, 2.5 μM, and 1.25 μM) of the NSAIDs and RSCL-0409 for 30 min. Then the cells were incubated with AA ([…]) for another 30 min. Prostaglandin E2 (PGE2), a metabolite of AA through the Cox pathway, was assayed in an enzyme immunoassay (EIA) kit from R&D systems.

TLR2 = molecular target: T1, TLR2 (Homo sapiens, UniProt O60603); experiment: TLR2 ligand induced TNF-α secretion in THP-1 cells and PBMCs (ELISA); type: cell-based; settings: TLR2 ligand 75 ng/ml, 1 hr pre-treatment, 24 hrs
T1 construct: endogenous in cells; host or cells: THP-1 monocytes and PBMCs
T1 sequence (O60603 21-784): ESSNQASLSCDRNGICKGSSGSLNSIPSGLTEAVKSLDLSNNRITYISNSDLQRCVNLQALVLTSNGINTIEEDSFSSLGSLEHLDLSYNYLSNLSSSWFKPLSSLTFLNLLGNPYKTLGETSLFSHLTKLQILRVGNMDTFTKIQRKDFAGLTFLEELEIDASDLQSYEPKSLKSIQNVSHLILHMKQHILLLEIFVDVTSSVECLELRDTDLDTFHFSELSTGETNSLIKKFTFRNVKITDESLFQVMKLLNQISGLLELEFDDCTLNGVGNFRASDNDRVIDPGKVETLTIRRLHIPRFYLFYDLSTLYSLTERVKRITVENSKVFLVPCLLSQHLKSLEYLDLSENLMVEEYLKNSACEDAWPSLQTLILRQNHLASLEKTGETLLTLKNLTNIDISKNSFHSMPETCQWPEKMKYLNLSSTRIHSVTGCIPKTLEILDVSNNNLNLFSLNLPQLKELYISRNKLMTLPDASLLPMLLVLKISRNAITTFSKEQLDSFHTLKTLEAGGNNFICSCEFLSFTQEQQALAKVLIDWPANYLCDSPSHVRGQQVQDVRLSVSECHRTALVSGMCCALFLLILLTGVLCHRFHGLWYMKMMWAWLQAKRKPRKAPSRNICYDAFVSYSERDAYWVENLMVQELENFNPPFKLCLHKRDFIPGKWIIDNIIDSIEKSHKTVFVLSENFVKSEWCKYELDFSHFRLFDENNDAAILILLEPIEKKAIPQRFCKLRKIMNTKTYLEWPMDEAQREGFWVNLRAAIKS
Experimental: The present invention has checked the effect of various TLR ligands on THP-1 monocytes, PBMCs and their ability to activate and release TNF-α. For this purpose about 9 TLR ligands were used. These ligands were obtained from Apotech Cat; APO-54N-018-K100 and assayed for TNF-α release in culture supernatants.
THP-1 and PBMCs (2×10^5 cells/well) were plated in 96-well plate. The cells were pretreated with RSCL-0409 in DMSO 1 hr prior to TLR ligand treatment. Following 1 hr pre-treatment, the cells were treated with TLR ligands [TLR2, TLR5 and TLR6-75 ng/ml each, TLR3-75 μg/ml, TLR4-750 ng/ml, TLR7, TLR8 and TLR9-7.5 μg/ml) for 24 hrs. The culture supernatant were collected after the stipulated time and assayed for TNF-α release using a Duoset Enzyme-Linked ImmunoSorbent Assay (ELISA) detection Kit (R&D systems, MN 55413, USA; Cat: DY-210 E). Simultaneously supernatants were collected from cells treated with ligands without pre-treatment with RSCL-0409 and only RSCL-0409 without ligand treatment.

THP-1 cells = experiment: MTT toxicity assay in THP-1 cells; type: cell-based, human
From the text: The toxicity of RSCL-0409 (FIG. 2b) was also by treating cells with RSCL-0409 by MTT assay. […] The viability of the cells (analyzed in tandem by MTT) was not affected by RSCL-0409 indicating its non-toxic nature.

Balb/c mice = experiment: LPS induced TNF-α release in Balb/c mice, pre-treatment; type: in vivo; settings: 1 hr post LPS
Experimental: The present invention has studied the ability of RSCL-0409 to exert protection against inflammatory agents in a mice (Balb/c) model. Balb/c (5-6 weeks) mice were injected with LPS (225 μg) intraperitoneally with and without pretreatment of three concentrations of RSCL-0409 (10 mg/kg, 20 mg/kg and 40 mg/kg). The compound was injected intraperitoneally 30 min before LPS treatment. The mice were monitored for 1 hr post LPS treatment. RSCL-0409 injected alone served as negative control. Blood collection was done retro-orbitally under anesthesia, 1 hr post LPS injection. Serum collected after cells were allowed to settle was analysed for TNF-α secretion.

## COc1ccc(OC2OC3COC(c4ccccc4)OC3C(OC3OC(COC(=O)CCC(C)=O)C(OC(=O)CCl)C(OC(C)=O)C3OC(C)=O)C2NC(=O)C(Cl)(Cl)Cl)cc1 [RSCL-0409, p-Methoxy phenyl-O-(2,3-di-O-acetyl-4-O-chloroacetyl-6-O-levulinoyl-β-D-glucopyranosyl)-(1-3)-2-deoxy-2-trichloroacetamido-4,6-O-benzylidene-α-D-glucopyranoside]
TNF-α
  concentration inhibiting LPS induced TNF-α secretion (as low as): 10 µM
TNF-α mRNA
  TNF-α mRNA expression: down regulated TNF-α to almost control levels
COX-2 pathway; A549 cells, 10, 5, 2.5 and 1.25 μM, AA induced
  PGE2 release: concentration dependent inhibition of PGE2 release
COX-2 pathway; A549 cells, AA induced
  concentration still effective on PGE2 release: 1.25 µM
COX-2 pathway; at all the concentrations used
  inhibition of PGE2 in comparison with the NSAIDs: better than Piroxicam
TLR2; PBMC
  inhibition of TNF-α secretion: ~46%
TLR2; THP-1 cells
  inhibition of TNF-α secretion: ~54%
THP-1 cells
  viability of the cells (MTT): not affected
Balb/c mice; 10 mg/kg i.p. 30 min before LPS (225 μg i.p.)
  reduction of serum TNF production: ~53%
Balb/c mice; 20 mg/kg i.p. 30 min before LPS (225 μg i.p.)
  reduction of serum TNF production: ~64%
Balb/c mice; 40 mg/kg i.p. 30 min before LPS (225 μg i.p.)
  reduction of serum TNF production: ~67%
